Measured values published in patent publication US9580444B2, “Polycyclic pyrazolinone derivative and herbicide comprising same as effective component thereof” (priority 2013, dated 2017).

Tests used:
Type in all cases: in vivo
corn = assay: Test Example-4: phytotoxicity by a foliage treatment after weeds are generated under upland field conditions; settings: 500 g a.i/ha, foliage treatment after emergence, about 14 days after treatment, score 0-5
Procedure, shortened: (§1)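 Read-out is a visual six-stage score from 0 to 5 for weed control or corn phytotoxicity, taken about 14 days after a uniform foliar spray. Plants had grown 14 days from seed in upland soil before the compound was applied at a predetermined dosage in 4000 L water per hectare.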

[1] = tested on: Cyperus difformis (smallflower umbrella plant); assay: Test Example-1: herbicidal effect by a treatment before weeds are generated under submerged conditions; settings: 500 g a.i/ha, pre-emergence treatment, about 15 days after treatment, score 0-5
Procedure, shortened: (§2)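 Weed seeds were sown in puddled paddy soil under flooding, then the diluted formulated compound was added to the water the same day at a predetermined dosage, and weed control was rated roughly 15 days afterwards in six stages (0–5).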

[2] = tested on: Echinochloa oryzicola (barnyard grass); assay: as above; settings: 500 g a.i/ha, pre-emergence treatment, about 15 days after treatment, score 0-5
Procedure, shortened: as §2

[3] = tested on: Monochoria vaginalis (monochoria); assay: as above; settings: 500 g a.i/ha, pre-emergence treatment, about 15 days after treatment, score 0-5
Procedure, shortened: as §2

[4] = tested on: other annual broad leaf weeds (Lindernia procumbens, Rotala indica, Elatine triandra); assay: as above; settings: 500 g a.i/ha, pre-emergence treatment, about 15 days after treatment, score 0-5
Procedure, shortened: as §2

[5] = tested on: Eleocharis acicularis (needle spikerush); assay: as above; settings: 500 g a.i/ha, pre-emergence treatment, about 15 days after treatment, score 0-5
Procedure, shortened: as §2

[6] = tested on: Scirpus juncoides (bulrush); assay: as above; settings: 500 g a.i/ha, pre-emergence treatment, about 15 days after treatment, score 0-5
Procedure, shortened: as §2

[7] = tested on: Chenopodium album (common lambsquarters); assay: Test Example-4: herbicidal effect by a foliage treatment after weeds are generated under upland field conditions; settings: 500 g a.i/ha, foliage treatment after emergence, about 14 days after treatment, score 0-5
Procedure, shortened: as §1

[8] = tested on: Amaranthus viridis (green amaranthus); assay: as above; settings: 500 g a.i/ha, foliage treatment after emergence, about 14 days after treatment, score 0-5
Procedure, shortened: as §1

[9] = tested on: Abutilon theophrasti (velvetleaf); assay: as above; settings: 500 g a.i/ha, foliage treatment after emergence, about 14 days after treatment, score 0-5
Procedure, shortened: as §1

Row | Compound | Phytotoxicity Corn (corn) | Herbicidal effect Cyperus difformis [1] | Herbicidal effect Echinochloa oryzicola [2] | Herbicidal effect Monochoria vaginalis [3] | Herbicidal effect Broadleaf weed [4] | Herbicidal effect Eleocharis acicularis [5] | Herbicidal effect Scirpus juncoides [6] | Herbicidal effect Chenopodium album [7] | Herbicidal effect Amaranthus viridis [8] | Herbicidal effect Abutilon theophrast [9]
1 | C#CCOc1cc(-c2c(F)n3n(c2=O)CCOCC3)c(Cl)cc1Cl [Example 1-364] | 1 (Herbicidal effect/phytotoxicity was 10% to 30%) | 5 (Herbicidal effect/phytotoxicity was 90% or greater) | 5 (Herbicidal effect/phytotoxicity was 90% or greater) | 5 (Herbicidal effect/phytotoxicity was 90% or greater) | 5 (Herbicidal effect/phytotoxicity was 90% or greater) | 5 (Herbicidal effect/phytotoxicity was 90% or greater) | 5 (Herbicidal effect/phytotoxicity was 90% or greater) | 5 (Herbicidal effect/phytotoxicity was 90% or greater) | 5 (Herbicidal effect/phytotoxicity was 90% or greater) | 5 (Herbicidal effect/phytotoxicity was 90% or greater)
2 | O=c1c(-c2ccc(Cl)c(OC3CCCC3)c2)c(Cl)n2n1CCCC2 [Example 1-52] | 0 (Herbicidal effect/phytotoxicity was 0% to 10%) | 5 (Herbicidal effect/phytotoxicity was 90% or greater) | 5 (Herbicidal effect/phytotoxicity was 90% or greater) | 5 (Herbicidal effect/phytotoxicity was 90% or greater) | 5 (Herbicidal effect/phytotoxicity was 90% or greater) | 5 (Herbicidal effect/phytotoxicity was 90% or greater) | 5 (Herbicidal effect/phytotoxicity was 90% or greater) | 5 (Herbicidal effect/phytotoxicity was 90% or greater) | 5 (Herbicidal effect/phytotoxicity was 90% or greater) | 5 (Herbicidal effect/phytotoxicity was 90% or greater)
3 | O=c1c(-c2cc(OCc3ccc(F)cc3)c(Cl)cc2F)c(Cl)n2n1CCCC2 [Example 1-192] | 1 (Herbicidal effect/phytotoxicity was 10% to 30%) | 5 (Herbicidal effect/phytotoxicity was 90% or greater) | 5 (Herbicidal effect/phytotoxicity was 90% or greater) | 5 (Herbicidal effect/phytotoxicity was 90% or greater) | 5 (Herbicidal effect/phytotoxicity was 90% or greater) | 5 (Herbicidal effect/phytotoxicity was 90% or greater) | 5 (Herbicidal effect/phytotoxicity was 90% or greater) | 5 (Herbicidal effect/phytotoxicity was 90% or greater) | 5 (Herbicidal effect/phytotoxicity was 90% or greater) | 5 (Herbicidal effect/phytotoxicity was 90% or greater)
4 | CC(C)=CCOc1cc(-c2c(Cl)n3n(c2=O)CCCC3)c(F)cc1Cl [Example 1-219] | 2 (Herbicidal effect/phytotoxicity was 30% to 50%) | 5 (Herbicidal effect/phytotoxicity was 90% or greater) | 5 (Herbicidal effect/phytotoxicity was 90% or greater) | 5 (Herbicidal effect/phytotoxicity was 90% or greater) | 5 (Herbicidal effect/phytotoxicity was 90% or greater) | 5 (Herbicidal effect/phytotoxicity was 90% or greater) | 5 (Herbicidal effect/phytotoxicity was 90% or greater) | 5 (Herbicidal effect/phytotoxicity was 90% or greater) | 5 (Herbicidal effect/phytotoxicity was 90% or greater) | 5 (Herbicidal effect/phytotoxicity was 90% or greater)
5 | O=c1c(-c2cc(OCC3CCCCC3)c(Cl)cc2F)c(Cl)n2n1CCCC2 [Example 1-188] | 0 (Herbicidal effect/phytotoxicity was 0% to 10%) | 5 (Herbicidal effect/phytotoxicity was 90% or greater) | 5 (Herbicidal effect/phytotoxicity was 90% or greater) | 5 (Herbicidal effect/phytotoxicity was 90% or greater) | 5 (Herbicidal effect/phytotoxicity was 90% or greater) | 5 (Herbicidal effect/phytotoxicity was 90% or greater) | 5 (Herbicidal effect/phytotoxicity was 90% or greater) | 5 (Herbicidal effect/phytotoxicity was 90% or greater) | 5 (Herbicidal effect/phytotoxicity was 90% or greater) | 5 (Herbicidal effect/phytotoxicity was 90% or greater)
6 | CCOc1cc(-c2c(Cl)n3n(c2=O)CCCC3)c(F)cc1Cl [Example 1-146] | 0 (Herbicidal effect/phytotoxicity was 0% to 10%) | 5 (Herbicidal effect/phytotoxicity was 90% or greater) | 5 (Herbicidal effect/phytotoxicity was 90% or greater) | 5 (Herbicidal effect/phytotoxicity was 90% or greater) | 5 (Herbicidal effect/phytotoxicity was 90% or greater) | 5 (Herbicidal effect/phytotoxicity was 90% or greater) | 5 (Herbicidal effect/phytotoxicity was 90% or greater) | 5 (Herbicidal effect/phytotoxicity was 90% or greater) | 5 (Herbicidal effect/phytotoxicity was 90% or greater) | 5 (Herbicidal effect/phytotoxicity was 90% or greater)
7 | Cc1cc(-c2c(Cl)n3n(c2=O)CCCC3)c(F)cc1Cl [Example 1-130] | 1 (Herbicidal effect/phytotoxicity was 10% to 30%) | 5 (Herbicidal effect/phytotoxicity was 90% or greater) | 5 (Herbicidal effect/phytotoxicity was 90% or greater) | 5 (Herbicidal effect/phytotoxicity was 90% or greater) | 5 (Herbicidal effect/phytotoxicity was 90% or greater) | 5 (Herbicidal effect/phytotoxicity was 90% or greater) | 5 (Herbicidal effect/phytotoxicity was 90% or greater) | 5 (Herbicidal effect/phytotoxicity was 90% or greater) | 5 (Herbicidal effect/phytotoxicity was 90% or greater) | 5 (Herbicidal effect/phytotoxicity was 90% or greater)
8 | C=CCOc1ccccc1Oc1cc(-c2c(Cl)n3n(c2=O)CCCC3)c(F)cc1Cl [Example 3-21] | 1 (Herbicidal effect/phytotoxicity was 10% to 30%) |  |  |  |  |  |  | 5 (Herbicidal effect/phytotoxicity was 90% or greater) | 5 (Herbicidal effect/phytotoxicity was 90% or greater) | 5 (Herbicidal effect/phytotoxicity was 90% or greater)
9 | C#CCOc1cc(-c2c(Cl)n3n(c2=O)CCOCC3)ccc1Cl [Example 1-66] | 1 (Herbicidal effect/phytotoxicity was 10% to 30%) |  |  |  |  |  |  | 5 (Herbicidal effect/phytotoxicity was 90% or greater) | 5 (Herbicidal effect/phytotoxicity was 90% or greater) | 5 (Herbicidal effect/phytotoxicity was 90% or greater)
10 | CC#CCOc1ccccc1Oc1cc(-c2c(Cl)n3n(c2=O)CCCC3)c(F)cc1Cl [Example 3-30] | 1 (Herbicidal effect/phytotoxicity was 10% to 30%) |  |  |  |  |  |  | 5 (Herbicidal effect/phytotoxicity was 90% or greater) | 5 (Herbicidal effect/phytotoxicity was 90% or greater) | 5 (Herbicidal effect/phytotoxicity was 90% or greater)
11 | CC1(COc2cc(-c3c(Cl)n4n(c3=O)CCCC4)c(F)cc2Cl)CC(c2ccc(Cl)cc2Cl)=NO1 (stereo not drawn) [Example 4-12] | 1 (Herbicidal effect/phytotoxicity was 10% to 30%) |  |  |  |  |  |  | 5 (Herbicidal effect/phytotoxicity was 90% or greater) | 5 (Herbicidal effect/phytotoxicity was 90% or greater) | 5 (Herbicidal effect/phytotoxicity was 90% or greater)
12 | C=C(COc1cc(-c2c(Cl)n3n(c2=O)CCCC3)c(F)cc1Cl)c1ccc(OCC)c(F)c1F [Example 1-230] | 0 (Herbicidal effect/phytotoxicity was 0% to 10%) |  |  |  |  |  |  | 5 (Herbicidal effect/phytotoxicity was 90% or greater) | 5 (Herbicidal effect/phytotoxicity was 90% or greater) | 5 (Herbicidal effect/phytotoxicity was 90% or greater)
